These results are taken from patent publication US10676462B2, “Quinoline derivative” (ONO PHARMACEUTICAL CO., LTD., priority 2013, dated 2020).

This assay concerns the target T1, Ba/F3 Axl (Homo sapiens, UniProt P30530).
T1 sequence (P30530 1-894): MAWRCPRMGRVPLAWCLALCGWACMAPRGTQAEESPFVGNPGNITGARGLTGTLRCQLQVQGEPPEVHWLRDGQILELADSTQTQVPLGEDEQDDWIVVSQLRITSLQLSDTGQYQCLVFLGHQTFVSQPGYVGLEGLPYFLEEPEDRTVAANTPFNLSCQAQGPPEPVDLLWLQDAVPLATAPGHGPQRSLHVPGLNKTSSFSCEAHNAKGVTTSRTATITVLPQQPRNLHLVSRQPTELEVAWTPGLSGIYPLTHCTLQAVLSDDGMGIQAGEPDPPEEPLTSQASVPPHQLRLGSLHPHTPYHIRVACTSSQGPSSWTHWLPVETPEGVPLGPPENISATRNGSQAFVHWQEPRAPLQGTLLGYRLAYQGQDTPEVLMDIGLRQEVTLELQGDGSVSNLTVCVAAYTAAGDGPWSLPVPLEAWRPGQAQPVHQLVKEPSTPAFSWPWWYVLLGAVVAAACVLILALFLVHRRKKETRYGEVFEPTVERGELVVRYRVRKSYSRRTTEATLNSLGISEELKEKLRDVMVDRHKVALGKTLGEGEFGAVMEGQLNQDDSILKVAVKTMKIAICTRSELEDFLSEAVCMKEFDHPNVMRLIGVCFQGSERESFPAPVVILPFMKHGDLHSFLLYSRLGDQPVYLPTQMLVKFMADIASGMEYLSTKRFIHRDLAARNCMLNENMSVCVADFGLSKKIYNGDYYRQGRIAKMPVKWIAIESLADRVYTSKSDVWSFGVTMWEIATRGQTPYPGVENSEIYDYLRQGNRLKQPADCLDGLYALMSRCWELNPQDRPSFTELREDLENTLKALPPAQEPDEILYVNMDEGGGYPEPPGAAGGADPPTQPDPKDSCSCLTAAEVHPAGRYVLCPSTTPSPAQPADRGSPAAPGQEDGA
The assay can be described thus: Proliferation suppression rate using mouse pro-B cell line (Ba/F3 Axl) stably expressing Axl. The class given is cell-based. As to conditions: Ba/F3 Axl cells, 48 hours, CellTiter-Glo; read-out: IC50 value, proliferation suppression of Ba/F3 Axl. The procedure: Biological Example 2: Measurement of Proliferation Suppression Rate by Using Mouse Pro-B Cell Line (Ba/F3 Axl) Stably Expressing Axl
A 0.1 mmol/L DMSO solution of the test compound was dispensed into a 96-well plate, and a 3-fold dilution series was prepared using DMSO. DMSO solutions of test compounds, having various concentrations, were further 500-fold diluted with a RPMI1640 medium (containing 10% HI-FBS, 1% penicillin) and a diluted solution of the test compound having […] with respect to the final concentration was prepared. In each well of the 96-well plate (BD Biosciences) for measurement, 50 μL of a RPMI medium was added to the Blank group, 50 μL of a RPMI medium containing 0.2% DMSO was added to the medium group, and 50 μL of the diluted solution of the test compound was added to the test compound group, respectively. Ba/F3 Axl was diluted with a medium to have a density of 2×10^5 cells/mL to prepare a cell suspension. In each well of the 96-well plate for measurement, 50 μL each of the RPMI medium was added to the Blank group, and 50 μL each of the cell suspension to the medium group and the test compound group, respectively, and the groups were stood still at 37° C. at 5% CO2 for 48 hours. After standing still, Relative Light Unit (RLU) was measured by using CELLTITER-GLO (registered trademark) LUMINESCENT CELL VIABILITY ASSAY (Promega). The measurement was carried out according to the attached instruction. To each well, 100 μL each of light-emitting solution was added. The plate was stirred at room temperature for 3 min and then stool still at room temperature with light shielded for 10 min, and RLU was measured by using Microplate Reader (SpectraMax M5e, Molecular Devices). The average values of RLU of the Blank group and the medium group were respectively calculated, and the proliferation suppression rate of the test compound group was calculated. Proliferation suppression rate (%)={1−(RLU of test compound group−A)/(B−A)}×100 [Math. 2] A: average value of RLU of Blank group B: average value of RLU of medium group
A value of 50% inhibition rate (IC50 value) of the test compound was calculated from the inhibition curve based on the inhibition rate in each concentration of the test compound.
For orientation: ATP-based viability assays read luminescence as a measure of living cells.
Regarding `COc1cc2nccc(Oc3ccc(NC(=O)c4cc5c(n(-c6ccccc6)c4=O)CC(C)(C)CC5=O)nc3)c2cc1OC` [Example 5(1), N-{5-[(6,7-dimethoxy-4-quinolinyl)oxy]-2-pyridinyl}-7,7-dimethyl-2,5-dioxo-1-phenyl-1,2,5,6,7,8-hexahydro-3-quinolinecarboxamide], the GI50 is 0.8 nM.

Take `O=C1CCCc2c1cc(C(=O)Nc1ccc(Oc3ccnc4cc(OCCCN5CCOCC5)ccc34)cn1)c(=O)n2-c1ccccc1` [Example 17(2), N-[5-({7-[3-(4-morpholinyl)propoxy]-4-quinolinyl}oxy)-2-pyridinyl]2,5-dioxo-1-phenyl-1,2,5,6,7,8-hexahydro-3-quinolinecarboxamide]: the GI50 was 1.2 nM.

In the case of `COc1cc2nccc(Oc3ccc(NC(=O)c4cc5c(n(-c6ccccc6)c4=O)CCCC5=O)c(C)c3)c2cc1OC` [Example 23(2), N-{4-[(6,7-dimethoxy-4-quinolinyl)oxy]-2-methylphenyl}-2,5-dioxo-1-phenyl-1,2,5,6,7,8-hexahydro-3-quinolinecarboxamide], the GI50 is 1.2 nM.

On to `COc1cc2nccc(Oc3ccc(NC(=O)c4cc5c(n(-c6ccccc6)c4=O)CCCC5=O)nc3)c2cc1OC` [Example 5, N-{5-[(6,7-dimethoxy-4-quinolinyl)oxy]-2-pyridinyl}-2,5-dioxo-1-phenyl-1,2,5,6,7,8-hexahydro-3-quinolinecarboxamide], for which the GI50 worked out at 0.7 nM.
